Measured values from US11596639B2, “Substituted indole Mcl-1 inhibitors” (Vanderbilt University, priority 2016, dated 2023).
Where two headings read alike, the source gives them in different places.

Columns and labels:
Mcl-1 = Mcl-1 (Homo sapiens (Human), UniProt Q07820); assay: Fluorescence polarization anisotropy (FPA) competition assay, FITC-Bak or FITC-Bim BH3 peptide; type: binding; conditions: read-out: Ki for Inhibition of Mcl-1 by FPA assay
[1] = test system: H929 human cancer cell lines; assay: Cellular viability / proliferation (Cell TiterGlo, 72 h); type: cell-based
Summary of the method: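 1,000 cells/well, 10% FBS medium; compound added at 24 h, 2-fold dilutions from 50 μM top, DMSO <1% final. 72 h exposure, CellTiterGlo 30 min RT dark, luminescence read. IC50 by 4-parameter fit.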

[2] = Homo sapiens, NCI-H929, 72 h, read-out: GI50 on cellular proliferation of H929 human cancer cell lines, H929 cells, 72 h, Cell TiterGlo, 10% FBS
[3] = read-out: GI50 on cellular proliferation of H929 human cancer cell lines, H929 cells, 72 h, Cell TiterGlo, 10% FBS

Mcl-1, sequence (Q07820 172-327): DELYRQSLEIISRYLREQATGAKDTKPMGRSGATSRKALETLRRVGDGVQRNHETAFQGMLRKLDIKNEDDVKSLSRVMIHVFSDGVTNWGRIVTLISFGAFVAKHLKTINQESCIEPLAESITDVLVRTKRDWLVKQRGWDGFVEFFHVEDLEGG

| SMILES | Ki (Mcl-1) | GI50 [1, 2] | GI50 ([1]; H929 cells, 72 h, Cell TiterGlo, 10% FBS, read-out: GI50 on cellular proliferation of H929 human cancer cell lines) | GI50 [1, 3] |
| --- | --- | --- | --- | --- |
| Cc1cc(OCCCc2c3n(c4c(-c5c(C)nn(C)c5C)c(Cl)ccc24)CCCN(c2cc(C(=O)O)c4ccn(CCN5CCOCC5)c4c2)C3=O)cc(C)c1Cl [Example 31, 6-(8-chloro-11-(3-(4-chloro-3,5-dimethylphenoxy)propyl)-1-oxo-7-(1,3,5-trimethyl-1H-pyrazol-4-yl)-4,5-dihydro-1H-[1,4]diazepino[1,2-a]indol-2(3H)-yl)-1-(2-morpholinoethyl)-1H-indole-4-carboxylic acid] | < 1 nM | 1800 nM |  |  |
| Cc1cc(OCCCc2c3n(c4c(-c5c(C)nn(C)c5C)c(Cl)ccc24)[C@H](C)CN(c2cn(C)c4ccc(C(=O)Nc5ccccn5)cc24)C3=O)cc(C)c1Cl [Example 280, 3-[(4R)-7-chloro-10-[3-(4-chloro-3,5-dimethyl-phenoxy)propyl]-4-methyl-1-oxo-6-(1,3,5-trimethylpyrazol-4-yl)-3,4-dihydropyrazino[1,2-a]indol-2-yl]-1-methyl-N-(2-pyridyl)indole-5-carboxamide] | 1.5 nM | 2200 nM |  |  |
| CNS(=O)(=O)c1ccc2c(c1)c(N1C[C@@H](C)n3c(c(CCCOc4cc(C)c(Cl)c(C)c4)c4ccc(Cl)c(-c5c(C)nn(C)c5C)c43)C1=O)cn2C [Example 267, (R)-3-(7-chloro-10-(3-(4-chloro-3,5-dimethylphenoxy)propyl)-4-methyl-1-oxo-6-(1,3,5-trimethyl-1H-pyrazol-4-yl)-3,4-dihydropyrazino[1,2-a]indol-2(1H)-yl)-N,1-dimethyl-1H-indole-5-sulfonamide] | 4.7 nM | 3100 nM |  |  |
| Cc1cc(OCCCc2c3n(c4c(-c5c(C)n[nH]c5C)c(Cl)ccc24)[C@H](C)CN(c2cc(C(=O)O)cc4c2ccn4C)C3=O)cc(C)c1Cl [Example 71, (R)-4-(7-chloro-10-(3-(4-chloro-3,5-dimethylphenoxy)propyl)-6-(3,5-dimethyl-1H-pyrazol-4-yl)-4-methyl-1-oxo-3,4-dihydropyrazino[1,2-a]indol-2(1H)-yl)-1-methyl-1H-indole-6-carboxylic acid] | < 1 nM | 3300 nM |  |  |
| Cc1cc(OCCCc2c3n(c4c(-c5c(C)nn(C)c5C)c(Cl)ccc24)[C@H](C)CN(c2cn(C)c4ccc(S(=O)(=O)N5CCN(C)CC5)cc24)C3=O)cc(C)c1Cl [Example 274, (R)-7-chloro-10-(3-(4-chloro-3,5-dimethylphenoxy)propyl)-4-methyl-2-(1-methyl-5-((4-methylpiperazin-1-yl)sulfonyl)-1H-indol-3-yl)-6-(1,3,5-trimethyl-1H-pyrazol-4-yl)-3,4-dihydropyrazino[1,2-a]indol-1(2H)-one] | 4.8 nM | 2200 nM |  |  |
| Cc1cc(OCCCc2c3n(c4c(-c5c(C)nn(C)c5C)c(Cl)ccc24)[C@H](C)CN(c2ccc(O)c4cc(C(=O)O)n(C)c24)C3=O)cc(C)c1Cl [Example 321, (M, R)-7-(7-Chloro-10-(3-(4-chloro-3,5-dimethylphenoxy)propyl)-4-methyl-1-oxo-6-(1,3,5-trimethyl-1H-pyrazol-4-yl)-3,4-dihydropyrazino[1,2-a]indol-2(1H)-yl)-4-hydroxy-1-methyl-1H-indole-2-carboxylic acid] | < 1 nM |  | 1400 nM |  |
| Cc1cc(OCCCc2c3n(c4c(-c5c(C)nn(C)c5C)c(Cl)ccc24)[C@H](C)CN(c2cc(C(=O)O)cc4c2OCCO4)C3=O)cc(C)c1Cl [Example 26, (R)-8-(7-chloro-10-(3-(4-chloro-3,5-dimethylphenoxy)propyl)-4-methyl-1-oxo-6-(1,3,5-trimethyl-1H-pyrazol-4-yl)-3,4-dihydropyrazino[1,2-a]indol-2(1H)-yl)-2,3-dihydrobenzo[b][1,4]dioxine-6-carboxylic acid] | 1.3 nM | 830 nM |  |  |
| Cc1cc(OCCCc2c3n(c4c(-c5c(C)nn(C)c5C)c(Cl)ccc24)[C@H](C)CN(c2cc(C(=O)O)cc4c2OCO4)C3=O)cc(C)c1Cl [Example 33, (R)-7-(7-chloro-10-(3-(4-chloro-3,5-dimethylphenoxy)propyl)-4-methyl-1-oxo-6-(1,3,5-trimethyl-1H-pyrazol-4-yl)-3,4-dihydropyrazino[1,2-a]indol-2(1H)-yl)benzo[d][1,3]dioxole-5-carboxylic acid] | < 1 nM | 650 nM |  |  |
| Cc1cc(OCCCc2c3n(c4c(-c5c(C)nn(C)c5C)c(Cl)ccc24)[C@H](C)CN(c2cc(C(C)C)cc4cc(C(N)=O)n(C)c24)C3=O)cc(C)c1Cl [Example 422, (R)-7-(7-Chloro-10-(3-(4-chloro-3,5-dimethylphenoxy)propyl)-4-methyl-1-oxo-6-(1,3,5-trimethyl-1H-pyrazol-4-yl)-3,4-dihydropyrazino[1,2-a]indol-2(1H)-yl)-5-isopropyl-1-methyl-1H-indole-2-carboxamide] | < 1 nM | 830 nM |  |  |
| Cc1cc(N2C[C@@H](C)n3c(c(CCCOc4cc(C)c(Cl)c(C)c4)c4ccc(Cl)c(-c5c(C)nn(C)c5C)c43)C2=O)c2c(c1)c(C(=O)O)cn2C [Example 183, (R)-7-(7-chloro-10-(3-(4-chloro-3,5-dimethylphenoxy)propyl)-4-methyl-1-oxo-6-(1,3,5-trimethyl-1H-pyrazol-4-yl)-3,4-dihydropyrazino[1,2-a]indol-2(1H)-yl)-1,5-dimethyl-1H-indole-3-carboxylic acid] | < 1 nM |  |  | 360 nM |
| Cc1cc(OCCCc2c3n(c4c(-c5c(C)nn(C)c5C)c(Cl)ccc24)[C@H](C)CN(c2cccc4cc(C(=O)O)n(Cc5cccnc5)c24)C3=O)cc(C)c1Cl [Example 245, 7-[(4R)-7-chloro-10-[3-(4-chloro-3,5-dimethyl-phenoxy)propyl]-4-methyl-1-oxo-6-(1,3,5-trimethylpyrazol-4-yl)-3,4-dihydropyrazino[1,2-a]indol-2-yl]-1-(3-pyridylmethyl)indole-2-carboxylic acid] | < 1 nM | 900 nM |  |  |
| Cc1ccnc(-c2ccc3c(c2)c(N2C[C@@H](C)n4c(c(CCCOc5cc(C)c(Cl)c(C)c5)c5ccc(Cl)c(-c6c(C)nn(C)c6C)c54)C2=O)cn3C)n1 [Example 418, (R)-7-Chloro-10-(3-(4-chloro-3,5-dimethylphenoxy)propyl)-4-methyl-2-(1-methyl-5-(4-methylpyrimidin-2-yl)-1H-indol-3-yl)-6-(1,3,5-trimethyl-1H-pyrazol-4-yl)-3,4-dihydropyrazino[1,2-a]indol-1(2H)-one] | 1.4 nM | 900 nM |  |  |
| Cc1cc(OCCCc2c3n(c4c(-c5c(C)nn(C)c5C)c(Cl)ccc24)[C@H](C)CN(c2cccc4c(C(=O)O)cn(C)c24)C3=O)cc(C)c1Cl [Example 214, (R)-7-(7-chloro-10-(3-(4-chloro-3,5-dimethylphenoxy)propyl)-4-methyl-1-oxo-6-(1,3,5-trimethyl-1H-pyrazol-4-yl)-3,4-dihydropyrazino[1,2-a]indol-2(1H)-yl)-1-methyl-1H-indole-3-carboxylic acid] | < 1 nM |  |  | 380 nM |
| Cc1cc(OCCCc2c3n(c4c(-c5c(C)nn(C)c5C)c(Cl)ccc24)[C@H](C)CN(c2ccc4oc(C(=O)O)cc4c2)C3=O)cc(C)c1Cl [Example 196, (R)-5-(7-Chloro-10-(3-(4-chloro-3,5-dimethylphenoxy)propyl)-4-methyl-1-oxo-6-(1,3,5-trimethyl-1H-pyrazol-4-yl)-3,4-dihydropyrazino[1,2-a]indol-2(1H)-yl)benzofuran-2-carboxylic acid] | < 1 nM | 3400 nM |  |  |
